This passage reports LC retention time results from the RepoRT retention time repository (doi:10.1038/s41597-019-0305-1).

This data set is described as follows: RP, Waters SunFire C18, 50 × 4.6 mm, 3.5 µm, 0.5 mL/min, estimated dead time 1.1 min; A: water + 0.1% formic acid; B: acetonitrile + 0.1% formic acid; gradient (min/%B) 0/5 7/100 8/100. The following applies: stereoisomer not certain.

With `CC1OC2(C(C)C(O)C1C)C(C)C1OC(=O)C2(C)C(=O)C1C` (stereo not given), the LC retention time is 5.25 min. Regarding `Cc1cc(OC(=O)c2c(C)cc(O)cc2O)cc(O)c1C(=O)OCC(O)C(O)CO` (stereo not given), the LC retention time is 4.52 min.

As for `Cc1cc(O)c2c(c1)C(=O)c1cccc(O)c1C2=O`, the LC retention time is 6.39 min. Consider `Cc1cc(O)c(C=O)c(O)c1C(=O)OCc1cc(O)c(C)c(O)c1C(=O)O`, for which the LC retention time is 6.74 min. With `COc1cc(O)c2c(c1)C(=O)c1cc(C=O)cc(O)c1C2=O`, the LC retention time is 6 min. As to `Cc1cc(O)cc(O)c1C(=O)O`, the LC retention time is 3.41 min. Next, `CCC(C)C(NC(=O)c1ccccc1)C(=O)NC(COC(=O)c1ccccc1)C(C)C` (stereo not given): 6.25 min; `Cc1cc(OC(=O)c2c(C)cc(O)c(O)c2O)cc(O)c1C(=O)O`: 4.69 min; `COC(=O)c1c(C)c(C)c(OC(=O)c2c(C)c(C)c(O)c(C=O)c2O)c(C)c1O`: 7.84 min.

As for `CCCCCc1cc(OC)cc(O)c1C(=O)O`, the LC retention time was 6.19 min. Next, `Cc1cc(O)c(C=O)c(O)c1C(=O)OCc1cc(O)c(C=O)c(O)c1C(=O)O`: 7.26 min. For `Cc1cc(O)c2c(=O)c3c(C)cc(O)cc3oc2c1`, the LC retention time is 6.34 min. For `COc1cc(C)c2c(c1C=O)Oc1c(c(C)c(O)c3c1C(O)OC3=O)OC2=O` (stereo not given), the LC retention time is 4.93 min. As for `CC(C)CC(NC(=O)C(=C1OC(=O)C(c2ccccc2)=C1O)c1ccccc1)C(=O)O` (stereo not given), the LC retention time was 7.26 min.

In the case of `CCCCCC(=O)Cc1cc(O)cc2c1C(=O)Oc1cc(O)c(C(=O)O)c(CCCCC)c1O2`, the LC retention time is 7.13 min. On to `CCCc1cc(O)cc(O)c1`, for which the LC retention time is 3.97 min. With `CC1=C(C(=O)O)C(CCCCCCCCCCCCC(C)CO)OC1=O` (stereo not given), the LC retention time is 6.93 min. For `CCCCCCCCCCCCCC1OC(=O)C(C)C1C(=O)O` (stereo not given) the value was 8 min; for `COc1cc(C)c(C(=O)Oc2cc(C)c(C(=O)O)c(O)c2)c(O)c1C`, 6.54 min. In the case of `COc1cc(C)c(C(=O)O)c(O)c1C`, the LC retention time was 5.09 min. For `Cc1cc(O)c(C=O)c2c1C(=O)Oc1c(COC(=O)C=CC(=O)O)c(O)c(C(=O)O)c(C)c1O2` the value was 6.04 min; for `COC(=O)c1c(C)cc(OC(=O)c2c(C)cc(O)c(C=O)c2O)c(C)c1O`, 7.14 min; for `CC1C(=O)OC(CCCCCCCCCC(C)(C)C)C1C(=O)O` (stereo not given), 8 min. In the case of `CC(=O)CCCCCCCCCCCCCC1OC(=O)C(C)=C1C(=O)O` (stereo not given), the LC retention time was 6.9 min. Take `CCC(C)C(NC(=O)c1ccccc1)C(=O)OCC(NC(=O)c1ccccc1)C(C)C` (stereo not given): the LC retention time was 6.17 min.

For `COc1cc(C)c(C)c(OC(=O)c2c(C)c(C=O)c(O)c(C=O)c2O)c1C`, the LC retention time is 6.73 min.

Regarding `COC(=O)c1c(C)cc(O)c(C)c1O`, the LC retention time is 5.37 min.

Consider `COC1=CC(=O)c2c(OC(C)=O)c3c(c(O)c2C1=O)CC(C)OC3=O` (stereo not given), for which the LC retention time was 6.99 min.

In the case of `O=C1c2cc(O)cc(O)c2C(=O)c2c(O)cc(CO)cc21`, the LC retention time is 4.9 min.

In the case of `CCCc1cc(OC)cc(O)c1C(=O)O`, the LC retention time is 5.25 min. As to `COc1c(O)c(O)c2c(c1O)C(=O)c1oc(C(C)=O)c(O)c1C2=O`, the LC retention time is 4.5 min. For `CCCCCc1c(C(=O)O)c(O)cc2oc3cc(OC)cc(CCC)c3c12`, the LC retention time was 7.09 min. `COc1cc(C)c(C(=O)Oc2cc(C)c(C(=O)O)c(O)c2C)c(O)c1C(=O)O`: the LC retention time was 5.79 min. With `CCCCCc1cc(OC)c(O)c2c1C(=O)Oc1cc(O)c(C(=O)O)c(CCCCC)c1O2`, the LC retention time was 7.36 min. Regarding `COC(=O)C(=C1OC(=O)C(c2ccccc2)=C1O)c1ccccc1OC`, the LC retention time is 6.75 min.

As to `CCC(C)CC(C)C(O)C(C)C(=O)OC(C(C)CC(C)CC)C(C)C(=O)O` (stereo not given), the LC retention time is 7.83 min. With `COC1=CC(=O)c2c(O)c3c(c(O)c2C1=O)C(O)C(C)OC3=O` (stereo not given), the LC retention time is 4.23 min. As for `Cc1cc(O)c(C=O)c2c1C(=O)Oc1c(C)c(O)c3c(c1O2)C(O)OC3=O` (stereo not given), the LC retention time is 5.3 min. For `CCCCCc1cc(OC(=O)c2c(O)cc(OC)cc2CC(=O)CCC)cc(O)c1C(=O)O` the value was 7.28 min. On to `CCCCCc1cc(O)cc(OC)c1C(=O)Oc1c(O)cc(CCCCC)c(C(=O)O)c1O`, for which the LC retention time is 6.54 min.

In the case of `COc1cc(C(=O)O)c2c(c1C)OC(=O)c1c(C)cc(O)c(C=O)c1O2`, the LC retention time is 5.08 min. For the compound `CC(=O)c1c(O)cc(O)cc1O`, the LC retention time was 3.77 min. On to `CCCc1cc(OC)cc(O)c1C(=O)Oc1c(O)cc(CCC)c(C(=O)OC)c1O`, for which the LC retention time is 7.11 min. On to `COc1cc(C)c2c(c1C=O)Oc1c(c(CO)c(O)c3c1C(O)OC3=O)OC2=O` (stereo not given), for which the LC retention time was 4.06 min. In the case of `COc1cc(O)cc(C)c1C(=O)O`, the LC retention time is 2.35 min.

Consider `Cc1cc(O)cc2oc3cc(O)cc(O)c3c(=O)c12`, for which the LC retention time is 5.15 min. `COC12CC(=O)C(C(C)=O)=C(O)C1(C)c1c(O)c(C)c(O)c(C(C)=O)c1O2` (stereo not given): the LC retention time was 7.08 min. With `Cc1cc(O)c2c(oc3cc(O)c(C(=O)O)c(C)c32)c1C(=O)O`, the LC retention time was 4.01 min. In the case of `Cc1cc(OC(=O)c2c(C)cc(OC(=O)c3c(C)cc(O)cc3O)cc2O)cc(O)c1C(=O)O`, the LC retention time is 6.53 min. For `CCCCCC(=O)Cc1cc(O)cc2c1C(=O)Oc1cc(O)c(C(=O)O)c(CC(=O)CCCCC)c1O2`, the LC retention time was 7.64 min. In the case of `CCCCCc1cc(O)c(OC(=O)c2c(CCC)cc(OC)cc2OC)c(O)c1C(=O)O`, the LC retention time is 6.84 min. With `COc1cc(C)c(C(=O)Oc2cc(C)c(C(=O)O)c(O)c2C)c(O)c1C=O`, the LC retention time was 6.35 min.

For the compound `CC(=O)OC(C)CC1CC(OC(C)=O)C(C)C(O)C(C)C(=O)OC(CC(C)OC(C)=O)CC(OC(C)=O)C(C)C(O)C(C)C(=O)O1` (stereo not given), the LC retention time was 6.35 min. Turning to `Cc1cc(O)c(C=O)c2c1C(=O)Oc1c(COC(=O)CCC(=O)O)c(O)c(C(=O)O)c(C)c1O2`, the LC retention time was 6.28 min. With `CCCCCc1cc(OC(=O)c2c(CCCCC)cc(OC)cc2OC)cc(OC)c1C(=O)O`, the LC retention time is 7.52 min. `CCCCCCCCCCCC1OC(=O)C(C)C1C(=O)O` (stereo not given): the LC retention time was 7.46 min. On to `COC1=CC(=O)c2c(O)c3c(c(O)c2C1=O)CC(C)OC3=O` (stereo not given), for which the LC retention time is 4.41 min. Regarding `COc1cc(C)c(C(=O)Oc2c(C)c(C(=O)O)c(O)c(C=O)c2O)c(O)c1C=O`, the LC retention time is 6.37 min. For `O=C1OC(=C2C(=O)Oc3ccccc32)C(O)=C1c1ccccc1` the value was 7.68 min. `CCCCCCCCCCCCC(C(=O)O)C(C)C(=O)O` (stereo not given): the LC retention time is 7.45 min. `Cc1cc(O)c(C)c2c1C(=O)Oc1cc(O)c(C(=O)O)c(C)c1O2`: the LC retention time was 5.27 min. In the case of `CC(=O)C1=C(O)C=C2Oc3c(C)c(O)c(C(C)=O)c(O)c3C2(C)C1=O` (stereo not given), the LC retention time was 7.45 min.

Take `CCCCCC(=O)Cc1cc(O)c(O)c2c1C(=O)Oc1cc(O)c(C(=O)O)c(CCCCC)c1O2`: the LC retention time is 6.62 min.

As for `CCCCCCCCCCC1CC(C(=O)O)C(C)C(=O)O1` (stereo not given), the LC retention time is 6.95 min. Consider `COC(=O)C(=C1OC(=O)C(c2ccccc2)=C1O)c1ccccc1`, for which the LC retention time was 7.49 min.

Take `CCCCCc1cc(OC(=O)c2c(O)cc(O)cc2CCCCC)cc(O)c1C(=O)O`: the LC retention time is 7.28 min.

Turning to `Cc1cc(O)cc2oc3cc(O)c4c(c3c12)COC4=O`, the LC retention time was 4.72 min.

In the case of `COc1cc(O)c2c(c1)C(=O)c1cc(C(=O)O)cc(O)c1C2=O`, the LC retention time is 5.72 min. With `O=C1NC(c2ccccc2)CC(=O)N2CCCC2C(=O)NC(c2ccccc2)CC(=O)N2CCCC12` (stereo not given), the LC retention time was 5.08 min. Consider `COC12CC(=O)C(C(C)=O)=C(O)C1(C)c1c(O)c(C(C)=O)c(O)c(C)c1O2` (stereo not given), for which the LC retention time is 6.88 min. For `O=C1OC2=C(c3ccccc3)C(=O)OC2=C1c1ccccc1`, the LC retention time is 7.64 min.

Regarding `C=C1C(=O)OC(CCCCCCCCCCCCCC(C)O)C1C(=O)O` (stereo not given), the LC retention time was 6.53 min. Next, `COc1cc(O)c2c(c1)C(=O)c1c(O)c(C)cc(O)c1C2=O`: 4.75 min; `Cc1cc(O)c(C)c(O)c1C(=O)O`: 3.99 min. `Cc1cc(=O)c2c(O)cc(O)c(C)c2o1`: the LC retention time is 4.65 min. Regarding `CC(=O)OCC1OC(Oc2cc3oc(C)cc(=O)c3c(O)c2C)C(OC(C)=O)C(O)C1O` (stereo not given), the LC retention time is 4.69 min. Turning to `CCCCCc1c(Oc2cc(OC)cc3c2C(=O)OC3(O)CCCC)c(O)cc(O)c1C(=O)O` (stereo not given), the LC retention time is 5.81 min. Consider `CC(=O)OC1C(Oc2cc3oc(C)cc(=O)c3c(O)c2C)OC(CO)C(O)C1O` (stereo not given), for which the LC retention time is 4 min. Turning to `CCCCCC(=O)Cc1cc(O)cc(O)c1C(=O)Oc1cc(CC(=O)CCCCC)c(C(=O)O)c(OC)c1`, the LC retention time is 6.03 min. Next, `COC(=O)c1c(C)cc(O)cc1O`: 4.63 min; `CCCCCCCCCCCCCCC(C(=O)O)C(CC(=O)O)C(=O)O` (stereo not given): 7.46 min; `CCCC(=O)Cc1cc(OC(=O)c2c(O)cc(OC)cc2CC(=O)CCC)cc(O)c1C(=O)O`: 6.92 min. For `Cc1cc(O)c(C=O)c(O)c1C(=O)O`, the LC retention time is 7.07 min. On to `O=C1C(O)=C(c2ccccc2)C(=O)C(O)=C1c1ccccc1`, for which the LC retention time was 5.71 min. Regarding `CCCCCc1cc(OC(=O)c2c(O)cc(OC)cc2CCC(=O)CC)cc(O)c1C(=O)O`, the LC retention time was 7.31 min.
